Test results as given in article PMC9848300, “Discovery of novel enasidenib analogues targeting inhibition of mutant isocitrate dehydrogenase 2 as antileukaemic agents” (Journal of Enzyme Inhibition and Medicinal Chemistry, 2023).

Tests used:
Format in all cases: cell-based
HOP-62 = experiment: NCI 60 antitumor screening (single dose); details: Homo sapiens; HOP-62 (non-small cell lung cancer), single dose 10 μM; read-out: Growth inhibition percentage (GI %)
How it was run: (§1)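 NCI-60 one-dose screen. Dose: 10 μM. Lines: 60 human tumour lines, nine tissue types. Output: GI% = 100 − G%.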

HS 578T = experiment: NCI 60 antitumor screening (single dose); details: Homo sapiens; HS 578T (breast cancer), single dose 10 μM; read-out: Growth inhibition percentage (GI %)
How it was run: (§2)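 Compounds were tested at a single 10 μM dose against the NCI 60-cell-line panel (nine tumour types), in triplicate. Growth was recorded as percent growth (G%) of treated cells, and growth inhibition was taken as GI% = 100 − G%.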

SK-OV-3 = experiment: NCI 60 antitumor screening (single dose); details: Homo sapiens; SK-OV-3 (ovarian cancer), single dose 10 μM; read-out: Growth inhibition percentage (GI %)
How it was run: as §1

HCC-2998 = experiment: NCI 60 antitumor screening (single dose); details: Homo sapiens; HCC-2998 (colon cancer), single dose 10 μM; read-out: Growth inhibition percentage (GI %)
How it was run: as §1

SNB-19 = experiment: NCI 60 antitumor screening (single dose); details: Homo sapiens; SNB-19 (CNS cancer), single dose 10 μM; read-out: Growth inhibition percentage (GI %)
How it was run: as §2

OVCAR-4 = experiment: NCI 60 antitumor screening (single dose); details: Homo sapiens; OVCAR-4 (ovarian cancer), single dose 10 μM; read-out: Growth inhibition percentage (GI %)
How it was run: as §2

OVCAR-5 = experiment: NCI 60 antitumor screening (single dose); details: Homo sapiens; OVCAR-5 (ovarian cancer), single dose 10 μM; read-out: Growth inhibition percentage (GI %)
How it was run: as §1

NCI-H460 = experiment: NCI 60 antitumor screening (single dose); details: Homo sapiens; NCI-H460 (non-small cell lung cancer), single dose 10 μM; read-out: Growth inhibition percentage (GI %)
How it was run: as §1

OVCAR-3 = experiment: NCI 60 antitumor screening (single dose); details: Homo sapiens; OVCAR-3 (ovarian cancer), single dose 10 μM; read-out: Growth inhibition percentage (GI %)
How it was run: as §2

U251 = experiment: NCI 60 antitumor screening (single dose); details: Homo sapiens, U-251; U251 (CNS cancer), single dose 10 μM; read-out: Growth inhibition percentage (GI %)
How it was run: as §1

KM 12 = experiment: NCI 60 antitumor screening (single dose); details: Homo sapiens, KM12; KM 12 (colon cancer), single dose 10 μM; read-out: Growth inhibition percentage (GI %)
How it was run: as §2

TK-10 = experiment: NCI 60 antitumor screening (single dose); details: Homo sapiens; TK-10 (renal cancer), single dose 10 μM; read-out: Growth inhibition percentage (GI %)
How it was run: as §2

OVCAR-8 = experiment: NCI 60 antitumor screening (single dose); details: Homo sapiens; OVCAR-8 (ovarian cancer), single dose 10 μM; read-out: Growth inhibition percentage (GI %)
How it was run: as §2

PC-3 = experiment: NCI 60 antitumor screening (single dose); details: Homo sapiens; PC-3 (prostate cancer), single dose 10 μM; read-out: Growth inhibition percentage (GI %)
How it was run: as §2

NCI-H226 = experiment: NCI 60 antitumor screening (single dose); details: Homo sapiens; NCI-H226 (non-small cell lung cancer), single dose 10 μM; read-out: Growth inhibition percentage (GI %)
How it was run: as §2

UACC-257 = experiment: NCI 60 antitumor screening (single dose / five doses); details: Homo sapiens; UACC-257 (melanoma), single dose 10 μM; read-out: Growth inhibition percentage (GI %)
T-47D = experiment: as above; details: Homo sapiens, T47D; T-47D (breast cancer), single dose 10 μM; read-out: Growth inhibition percentage (GI %)
SR = experiment: as above; details: Homo sapiens; SR (leukaemia), single dose 10 μM; read-out: Growth inhibition percentage (GI %)
HCT-116 = experiment: as above; details: Homo sapiens; HCT-116 (colon cancer), single dose 10 μM; read-out: Growth inhibition percentage (GI %)
SF-295 = experiment: as above; details: Homo sapiens; SF-295 (CNS cancer), single dose 10 μM; read-out: Growth inhibition percentage (GI %)
K-562 = experiment: as above; details: Homo sapiens, K562; K-562 (leukaemia), single dose 10 μM; read-out: Growth inhibition percentage (GI %)
COLO 205 = experiment: as above; details: Homo sapiens; COLO 205 (colon cancer), single dose 10 μM; read-out: Growth inhibition percentage (GI %)
SN 12C = experiment: as above; details: Homo sapiens, SN12C; SN 12C (renal cancer), single dose 10 μM; read-out: Growth inhibition percentage (GI %)
ACHN = experiment: as above; details: Homo sapiens; ACHN (renal cancer), single dose 10 μM; read-out: Growth inhibition percentage (GI %)
IGROV1 = experiment: as above; details: Homo sapiens, IGROV-1; IGROV1 (ovarian cancer), single dose 10 μM; read-out: Growth inhibition percentage (GI %)
SK-MEL-2 = experiment: as above; details: Homo sapiens; SK-MEL-2 (melanoma), single dose 10 μM; read-out: Growth inhibition percentage (GI %)
LOX IMVI = experiment: as above; details: Homo sapiens; LOX IMVI (melanoma), single dose 10 μM; read-out: Growth inhibition percentage (GI %)
EKVX = experiment: as above; details: Homo sapiens; EKVX (non-small cell lung cancer), single dose 10 μM; read-out: Growth inhibition percentage (GI %)

Row | SMILES | inhibition at 10 µM (HOP-62) [%] | inhibition at 10 µM (HS 578T) [%] | inhibition at 10 µM (SK-OV-3) [%] | inhibition at 10 µM (HCC-2998) [%] | inhibition at 10 µM (SNB-19) [%] | inhibition at 10 µM (OVCAR-4) [%] | inhibition at 10 µM (OVCAR-5) [%] | inhibition at 10 µM (NCI-H460) [%] | inhibition at 10 µM (OVCAR-3) [%] | inhibition at 10 µM (U251) [%] | inhibition at 10 µM (KM 12) [%] | inhibition at 10 µM (TK-10) [%] | inhibition at 10 µM (OVCAR-8) [%] | inhibition at 10 µM (PC-3) [%] | inhibition at 10 µM (NCI-H226) [%] | inhibition at 10 µM (UACC-257) [%] | inhibition at 10 µM (T-47D) [%] | inhibition at 10 µM (SR) [%] | inhibition at 10 µM (HCT-116) [%] | inhibition at 10 µM (SF-295) [%] | other results
1 | Oc1ccccc1/C=N/Nc1nc(N/N=C/c2ccccc2O)nc(N2CCCCC2)n1 [compound 7a, 2-[(1e)-(2-{4-[(E)-2-[(2-Hydroxyphenyl)methylidene]hydrazin-1-yl]-6-(piperidin-1-yl)-1,3,5-triazin-2-yl}hydrazin-1-ylidene)methyl] phenol] | 44.2 | 23.4 | 12 | 60.4 | 44 | 70.9 | 28.4 | 60.5 | 80.8 | 49.6 | 52.5 | 2.29 | 50.4 | 55.2 | 18.2 | 20.9 | 51.8 | 60.2 | 22 | 47.4 | inhibition at 10 µM (K-562): 61.8%; inhibition at 10 µM (COLO 205): 75.5%; inhibition at 10 µM (SN 12C): 40.5%; inhibition at 10 µM (ACHN): 63.1%; inhibition at 10 µM (IGROV1): 54.8%; inhibition at 10 µM (SK-MEL-2): 30.8%; inhibition at 10 µM (LOX IMVI): 60.3%; inhibition at 10 µM (EKVX): 69.9%
2 | Brc1ccccc1/C=N/Nc1nc(N/N=C/c2ccccc2Br)nc(N2CCCCC2)n1 [compound 7b, 2,4-Bis[(E)-2-[(2-Bromophenyl)methylidene]hydrazin-1-yl]-6-(piperidin-1-yl)-1,3,5-triazine] | 1.14 | -5.25 | -0.76 | -7.41 | 3.76 | 0.53 | 0.1 | 0.96 | -6.1 | -2.15 | 2 | -16.5 | -1.21 | 5.07 | 10.9 | -8.22 | 11.2 | -1.34 | -2.25 | -3.22 | inhibition at 10 µM (K-562): 4.67%; inhibition at 10 µM (COLO 205): -5.18%; inhibition at 10 µM (SN 12C): 5.69%; inhibition at 10 µM (ACHN): 4.56%; inhibition at 10 µM (IGROV1): 2.38%; inhibition at 10 µM (SK-MEL-2): -1.28%; inhibition at 10 µM (LOX IMVI): 1.94%; inhibition at 10 µM (EKVX): 4.52%
3 | Brc1cccc(/C=N/Nc2nc(N/N=C/c3cccc(Br)c3)nc(N3CCCCC3)n2)c1 [compound 7c, 2,4-Bis[(E)-2-[(3-Bromophenyl)methylidene]hydrazin-1-yl]-6-(piperidin-1-yl)-1,3,5-triazine] | -8.46 | -21.2 | -9 | -2.01 | -2.24 | 11.6 | -15.9 | -2.41 | 0.95 | 3.1 | -6.72 | -27.6 | 2.62 | 19.8 | 8.12 | -4.98 | 12.3 | 12.9 | 13.5 | 2.91 | inhibition at 10 µM (K-562): 11.2%; inhibition at 10 µM (COLO 205): -5.18%; inhibition at 10 µM (SN 12C): -1.41%; inhibition at 10 µM (ACHN): -5.5%; inhibition at 10 µM (IGROV1): -0.7%; inhibition at 10 µM (SK-MEL-2): -2.13%; inhibition at 10 µM (LOX IMVI): -5.74%; inhibition at 10 µM (EKVX): 22.4%
4 | Clc1cccc(/C=N/Nc2nc(N/N=C/c3cccc(Cl)c3)nc(N3CCCCC3)n2)c1 [compound 7d, 2,4-Bis[(E)-2-[(3-Chlorophenyl)methylidene]hydrazin-1-yl]-6-(piperidin-1-yl)-1,3,5-triazine] | -4.1 | -4.65 | -9.25 | -8.18 | 1.37 | 9.83 | -10.4 | 3.48 | 8.59 | 8.35 | 8.95 | -6.48 | 10.8 | 24 | 18 | -11.1 | 24 | 25.4 | 2.75 | 7.02 | inhibition at 10 µM (K-562): 17%; inhibition at 10 µM (COLO 205): -1.88%; inhibition at 10 µM (SN 12C): 7.63%; inhibition at 10 µM (ACHN): -1.44%; inhibition at 10 µM (IGROV1): -4.79%; inhibition at 10 µM (SK-MEL-2): 13.9%; inhibition at 10 µM (LOX IMVI): -4.97%; inhibition at 10 µM (EKVX): 21.6%
5 | Fc1cccc(/C=N/Nc2nc(N/N=C/c3cccc(F)c3)nc(N3CCCCC3)n2)c1 [compound 7e, 2,4-Bis[(E)-2-[(3-Fluorophenyl)methylidene]hydrazin-1-yl]-6-(piperidin-1-yl)-1,3,5-triazine] | -7.48 | -13.2 | -14.6 | 0.77 | 3.96 | 13.7 | -8.1 | 8.63 | 10.6 | 5.46 | 17.9 | -20.6 | 14.6 | 31.4 | 17.9 | -0.08 | 30.6 | 31.9 | 9.65 | 15.6 | inhibition at 10 µM (K-562): 38.6%; inhibition at 10 µM (COLO 205): -0.08%; inhibition at 10 µM (SN 12C): 5.08%; inhibition at 10 µM (ACHN): 8.6%; inhibition at 10 µM (IGROV1): 9.61%; inhibition at 10 µM (SK-MEL-2): 0.55%; inhibition at 10 µM (LOX IMVI): 14.2%; inhibition at 10 µM (EKVX): 29.3%
